# From US20060009425A1, “Oral formulations of paricalcitol” (priority 2004, published 2006)
# Read-outs that look alike come from different tables or passages of the source.
# Assays:
# [1] = Phase 3 once daily study, safety (Example 8)
# Description: Additionally, safety was assessed by the incidence of adverse events, the change from baseline in chemistry, hematology and urinalysis laboratory variables, the change from baseline in subject vital signs, and progressive changes in renal function observed via changes in eGFR.
# All randomized subjects who received at least 1 dose of study drug were used in safety analyses.
# Secondary safety analyses also consisted of an analysis of “treatment-emergent” adverse events (i.e., adverse events with an onset date on or after the date the first dose of study drug was taken). Adverse events were summarized by body system and COSTART term according to the COSTART V adverse event-coding dictionary. Comparisons of the percentage of subjects experiencing an adverse event between the Paricalcitol and placebo treatment groups were performed using a Fisher's exact test.
# [2] = Combined Phase 3 studies, safety (Examples 10-12); format: in vivo, human
# Description: As discussed previously, Vitamin D deficiency is common in early stage CKD and is a major factor in the development of 2° HPT. However, few nephrologists prescribe calcitriol due to concerns of its calcemic, phosphatemic and calciuric effects and potential adverse effect on kidney function. In this example, a study was conducted that evaluated the safety of paricalcitol capsule in CKD stage 3-4 subjects with 2° HPT in 3 double-blind, placebo-controlled multicenter studies. A total of 220 subjects with iPTH ≧150 pg/mL, serum Ca 8-10 mg/dL and P≦5.2 mg/dL were randomized 1:1 and treated with paricalcitol capsule (N=107) or placebo (N=113) three times per week or daily for 24 weeks. Initial doses were based on iPTH levels at baseline (iPTH <500 pg/mL: 2 mcg TIW or 1 mcg QD; iPTH ≧500 pg/mL: 4 mcg TIW or 2 mcg QD). Subsequent dose adjustments (TIW: 2 mcg, QD: 1 mcg) were based on biweekly Ca, P and iPTH results, dose increases occurred every 4 weeks.
# In this example, three double-blind, placebo-controlled, multicenter studies were conducted to evaluate the safety and efficacy of paricalcitol capsule in CKD stage 3-4 subjects. Major inclusion included eGFR (MDRD formula) 15-60 mL/min/1.73 m^2, iPTH ≧150 pg/mL. A total of 220 subjects across the 3 studies were randomized and received paricalcitol capsule or placebo three times weekly (TIW, N=145) or daily (QD, N=75) for 24 weeks. Mean baseline eGFR was 23.90 mL/min/1.73 m^2 in the paricalcitol group and 23.44 mL/min/1.73 m^2 in the placebo group. The initial dose was 2 mcg (TIW) or 1 mcg (QD) for baseline iPTH ≦500 pg/mL and 4 mcg (TIW) or 2 mcg (QD) for baseline iPTH >500 pg/mL. Doses were titrated based on serum Ca, P and iPTH results that were measured every 2 weeks, dose increases occurred every 4 weeks.
# In this example, paricalcitol capsules were evaluated in 3 double-blind, placebo-controlled multicenter studies in CKD stage 3-4 subjects with 2° HPT; 2 of these studies were conducted with TIW dosing and 1 was done with QD dosing. Subjects with eGFR (MDRD formula) 15-60 ml/min/1.73 m^2, iPTH ≧150 pg/mL, serum Ca 8.0-10.0 mg/dL and PO4≦5.2 mg/dL were randomized 1:1 and treated with paricalcitol capsule or placebo for 24 weeks. A total of 145 subjects used TIW regimen (paricalcitol: 72; placebo: 73) and 75 subjects (paricalcitol: 35; placebo: 40) used QD regimen. After the initial doses, doses were titrated based on serum Ca, P and iPTH results that were measured every 2 weeks; dose increases occurred once every 4 weeks and decreases every 2 weeks. Dosing administrations are shown below in Table 18.
# [3] = Phase 3 TIW study, safety (Example 7); format: in vivo, human
# Description: Safety: Safety was assessed through an evaluation of clinically meaningful hypercalcemia (2 consecutive calcium results >10.5 mg/dL). Additionally, safety was assessed by the incidence of adverse events, the change from baseline in chemistry, hematology and urinalysis laboratory variables, the change from baseline in subject vital signs, and progressive changes in renal function observed via changes in eGFR.
# All randomized subjects who received at least 1 dose of study drug were used in safety analyses. The primary safety analysis was a comparison between the paricalcitol and placebo treatment groups of the proportion of subjects achieving clinically meaningful hypercalcemia (2 consecutive calcium measurements >10.5 mg/dL). This comparison was performed using a Fisher's exact test. Secondary safety analyses were performed comparing changes/percent changes from baseline between the paricalcitol and placebo treatment groups using a one-way ANOVA with treatment group as the factor for the following variables: hematology, complete chemistry, and urinalysis variables; 24-hour urine collections, eGFR, urinary calcium/creatinine ratio, cardiovascular markers, and vital signs. Secondary safety analyses also consisted of an analysis of “treatment-emergent” adverse events (i.e., adverse events with an onset date on or after the date the first dose of study drug was taken). Adverse events were summarized by body system and COSTART term according to the COSTART V adverse event-coding dictionary. Comparisons of the percentage of subjects experiencing an adverse event between the Oral paricalcitol and placebo treatment groups were performed using a Fisher's exact test.
# [4] = Bioavailability of capsule vs intravenous formulation, end-stage CKD on continuous peritoneal dialysis (Example 9); format: in vivo; settings: human, plasma, 0.24 μg/kg; for half-life: CPD, read-out: harmonic mean of the terminal elimination half-life (converted)
# Description: Methodology: This was a Phase I, open-label, randomized, single-dose, two-period, crossover, nonfasting study. Subjects were randomized into two sequence groups of
# Formulations A and B. The two nonfasting study administrations were: […]
# The strengths of the capsule formulations were 0.5, 1, 2 or 4 μg.
# The intravenous formulation contained 2-10 micrograms/milliliter of paricalcitol, 30% (v/v) propylene glycol, 20% (v/v) ethanol and 50% (v/v) water.
# Both formulations were administered immediately after CPD exchange in the morning, 30 minutes after breakfast was served. Phosphate binders, commonly used in the management of end-stage renal disease, were withheld 8 hours prior to and 2 hours after the drug administration. A washout interval of at least 7 days separated the doses of the two study periods.
# Plasma concentrations of paricalcitol were determined using a validated HPLC-tandem mass spectrometric assay method at Abbott Laboratories, Abbott Park, Ill. The lower limit of quantitation of paricalcitol was 0.02 ng/mL using 0.6 mL of plasma.
# Pharmacokinetic: The pharmacokinetic parameter values of paricalcitol were estimated using noncompartmental methods. These included: Cmax, t1/2, AUC0-t, AUC0-∞, CL, CL/F, Tmax, Vdβ and Vdβ/F, as described in the last example.
# Statistical Methods: An analysis of variance (ANOVA) was performed for β and the logarithms of Cmax, AUC0-t and AUC0-∞. […] The number and percentage of subjects reporting adverse events were tabulated by COSTART term and body system. Laboratory values outside the reference ranges were flagged and evaluated for clinical significance.
# [5] = 3 Phase 3 studies, TIW or daily for 24 weeks, CKD stage 3-4
# [6] = N = 106, 3 Phase 3 studies combined
# [7] = subjects who completed 24 weeks of treatment
compound,measurement,setting,value
"C[C@H](/C=C/[C@H](C)C(C)(C)O)[C@H]1CC[C@H]2/C(=C/C=C3C[C@@H](O)C[C@H](O)C3)CCC[C@]12C [Paricalcitol, 19-nor-1α,3β,25-trihydroxy-9,10-secoergosta-5(Z); 7(E),22(E)-triene]",safety and tolerability,[1]; CKD (Stages 3 and 4) subjects,safe and well tolerated
same,"mean calcium values, range over scheduled visits",[1]; Treatment Phase,9.24 to 9.54 mg/dL
same,subjects reporting serious adverse events,[1]; Treatment and Follow-Up Phases,7 subjects
same,deaths,"[1]; hepatic encephalopathy, considered not related to study drug",1 subject
same,adverse event incidence: abdominal pain,[1]; in vivo,9%
same,adverse event incidence: accidental injury,[1]; in vivo,17%
same,adverse event incidence: allergic reaction,[1]; in vivo,9%
same,adverse event incidence: cough increased,[1]; in vivo,9%
same,adverse event incidence: diarrhea,[1]; in vivo,11%
same,adverse event incidence: edema,[1]; in vivo,11%
same,adverse event incidence: nausea,[1]; in vivo,9%
same,adverse event incidence: pharyngitis,[1]; in vivo,14%
same,adverse event incidence: rash,[1]; in vivo,11%
same,adverse event incidence: vomiting,[1]; in vivo,11%
same,"phosphorus, mean change from baseline to Final Visit",[1]; in vivo,-0.13 mg/dL
same,"serum calcium, mean change from baseline to Last On-Treatment Visit",[1]; in vivo,0.21 mg/dL
same,subjects terminated prematurely due to adverse events,[1]; in vivo,4 subjects
same,subjects who developed clinically meaningful hypercalcemia (at least 2 consecutive calcium values >10.5 mg/dL),[1]; in vivo,0/35
same,adverse events considered not related to study drug administration,"[1]; once daily, 24 weeks",67%
same,adverse events mild or moderate in severity,"[1]; once daily, 24 weeks",93%
same,subjects with treatment-emergent adverse events,"[1]; once daily, 24 weeks",91%
same,subjects who experienced hypercalcemia (2 consecutive Ca >10.5 mg/dL),"[2]; 2/106, 3 Phase 3 studies combined",2%
same,adverse event incidence: pharyngitis,[2]; 3 Phase 3 studies combined,10%
same,treatment-emergent adverse events reporting,[2]; 3 Phase 3 studies combined,82%
same,"Urine Calcium, Mean Change from Baseline (SE)",[2]; [5],2.4 (3.04) mg/24 hours
same,"Urine Calcium, Mean Final Value",[2]; [5],42.0 mg/24 hours
same,"Urine Phosphorous, Mean Change from Baseline (SE)",[2]; [5],−2.1 (39.72) mg/24 hours
same,"Urine Phosphorous, Mean Final Value",[2]; [5],670.4 mg/24 hours
same,safety and tolerability,"[2]; CKD stage 3-4 subjects, 3 Phase 3 studies",safe and well tolerated
same,"Elevated Ca × P (2 consecutive Ca × P > 55 mg^2/dL^2), subjects n (%)",[2]; [6],13 (12%)
same,"Hypercalcemia (2 consecutive Ca > 10.5 mg/dL), subjects n (%)",[2]; [6],2 (2%)
same,"Hyperphosphatemia (2 consecutive P > 5.5 mg/dL), subjects n (%)",[2]; [6],11 (10%)
same,"Elevated Ca × P (2 consecutive Ca × P > 55 mg^2/dL^2), subjects n (%)",[2]; QD regimen,5 (14%)
same,"Hypercalcemia (2 consecutive Ca > 10.5 mg/dL), subjects n (%)",[2]; QD regimen,0 (%)
same,"Hyperphosphatemia (2 consecutive P > 5.5 mg/dL), subjects n (%)",[2]; QD regimen,5 (14%)
same,"Elevated Ca × P (2 consecutive Ca × P > 55 mg^2/dL^2), subjects n (%)",[2]; TIW regimen,8 (12%)
same,"Hypercalcemia (2 consecutive Ca > 10.5 mg/dL), subjects n (%)",[2]; TIW regimen,2 (3%)
same,"Hyperphosphatemia (2 consecutive P > 5.5 mg/dL), subjects n (%)",[2]; TIW regimen,6 (9%)
same,"eGFR (MDRD formula), Mean Change from Baseline",[2]; [7],−2.5 (0.526) mL/min/1.73 m^2
same,"eGFR (MDRD formula), Mean Final Value",[2]; [7],21.4 mL/min/1.73 m^2
same,"eGFR (MDRD formula), Mean Percent Change from Baseline (SE)",[2]; [7],−10.4 (2.268)
same,safety and tolerability,[3]; CKD (Stages 3 and 4) subjects,safe and well tolerated
same,adverse events considered not related to study drug administration,"[3]; TIW, 24 weeks",81%
same,adverse events mild or moderate in severity,"[3]; TIW, 24 weeks",96%
same,subjects with treatment-emergent adverse events,"[3]; TIW, 24 weeks",76%
same,"mean calcium values, range over scheduled visits",[3]; Treatment Phase,9.36 to 9.62 mg/dL
same,subjects reporting serious adverse events,[3]; Treatment and Follow-Up Phases,6 subjects
same,adverse event incidence: diarrhea,[3]; in vivo,9%
same,adverse event incidence: dizziness,[3]; in vivo,12%
same,adverse event incidence: edema,[3]; in vivo,9%
same,adverse event incidence: hypotension,[3]; in vivo,12%
same,adverse event incidence: uremia,[3]; in vivo,12%
same,"serum calcium, mean change from baseline to Last On-Treatment Visit",[3]; in vivo,0.19 mg/dL
same,subjects terminated prematurely due to adverse events,[3]; in vivo,1 subjects
same,subjects who developed clinically meaningful hypercalcemia (at least 2 consecutive calcium values >10.5 mg/dL),[3]; in vivo,1/33
same,"eGFR, mean percent change from baseline to Final Visit",[3]; [7],−16.61%
same,half-life,[4]; following intravenous administration,~900 min
same,half-life,[4]; following oral administration,~1080 min
same,bioavailability,"[4]; single oral dose of capsule formulation, end-stage renal disease on CPD, read-out: absolute bioavailability",86.1%
